# Results reported in BindingDB's records for doi:10.1016/s0960-894x(03)00588-2 (University of California Irvine, 2003).
# Assay: Inhibitory concentration against protein phosphatase 1 (PP1) using pNPP assay
row,SMILES,IC50 [µM]
1,"CO[C@@H](Cc1ccccc1)[C@@H](C)/C=C(C)/C=C/[C@H](NC(C)=O)[C@H](C)C(=O)N1[C@H](C(=O)O)CC[C@H]1C(=O)O [(2S,5S)-1-((4E,6E)-(2S,3S,8S,9S)-3-Acetylamino-9-methoxy-2,6,8-trimethyl-10-phenyl-deca-4,6-dienoyl)-pyrrolidine-2,5-dicarboxylic acid]",> 50
2,"CO[C@@H](Cc1ccccc1)[C@@H](C)/C=C(C)/C=C/[C@H](NC(C)=O)[C@H](C)C(=O)N(CC(=O)O)CC(=O)O [[((4E,6E)-(2S,3S,8S,9S)-3-Acetylamino-9-methoxy-2,6,8-trimethyl-10-phenyl-deca-4,6-dienoyl)-carboxymethyl-amino]-acetic acid]",> 100
3,"CC(=O)N[C@@H](/C=C/C(C)=C/c1ccccc1Cc1ccccc1)[C@H](C)C(=O)N[C@H](C)C(=O)O [(R)-2-[(4E,6E)-(2S,3S)-3-Acetylamino-7-(2-benzyl-phenyl)-2,6-dimethyl-hepta-4,6-dienoylamino]-propionic acid]",> 100
4,"CC(=O)N[C@@H](/C=C/C(C)=C/c1ccc(-c2ccccc2)cc1)[C@H](C)C(=O)N[C@H](C)C(=O)O [(R)-2-((4E,6E)-(2S,3S)-3-Acetylamino-7-biphenyl-4-yl-2,6-dimethyl-hepta-4,6-dienoylamino)-propionic acid]",> 100
5,"CO[C@@H](Cc1ccccc1)[C@@H](C)/C=C(C)/C=C/[C@H](NC(C)=O)[C@H](C)C(=O)N1C[C@H](C(=O)O)C[C@H]1C(=O)O [(2S,4R)-1-((4E,6E)-(2S,3S,8S,9S)-3-Acetylamino-9-methoxy-2,6,8-trimethyl-10-phenyl-deca-4,6-dienoyl)-pyrrolidine-2,4-dicarboxylic acid]",> 100
6,"CO[C@@H](Cc1ccccc1)[C@@H](C)/C=C(C)/C=C/[C@H](NC(C)=O)[C@H](C)C(=O)N[C@H](C)C(=O)O [(R)-2-((4E,6E)-(2S,3S,8S,9S)-3-Acetylamino-9-methoxy-2,6,8-trimethyl-10-phenyl-deca-4,6-dienoylamino)-propionic acid]",25
7,"COC(=O)[C@@H]1CCCN1C(=O)[C@@H](C)[C@H](/C=C/C(C)=C/[C@H](C)[C@H](Cc1ccccc1)OC)NC(C)=O [(S)-1-((4E,6E)-(2S,3S,8S,9S)-3-Acetylamino-9-methoxy-2,6,8-trimethyl-10-phenyl-deca-4,6-dienoyl)-pyrrolidine-2-carboxylic acid methyl ester]",> 100
8,"CC(=O)N[C@@H](/C=C/C(C)=C/CCCc1ccccc1)[C@H](C)C(=O)N[C@H](C)C(=O)O [(R)-2-((4E,6E)-(2S,3S)-3-Acetylamino-2,6-dimethyl-10-phenyl-deca-4,6-dienoylamino)-propionic acid]",> 100
9,"CO[C@@H](Cc1ccccc1)[C@@H](C)/C=C(C)/C=C/[C@H](NC(C)=O)[C@H](C)C(=O)N1CCCC1 [N-[(2E,4E)-(1S,6S,7S)-7-Methoxy-4,6-dimethyl-1-((S)-1-methyl-2-oxo-2-pyrrolidin-1-yl-ethyl)-8-phenyl-octa-2,4-dienyl]-acetamide]",> 100
10,"CO[C@@H](Cc1ccccc1)[C@@H](C)/C=C(C)/C=C/[C@H](NC(C)=O)[C@H](C)C(=O)N1C[C@@H](C(=O)O)C[C@@H]1C(=O)O [(2R,4S)-1-((4E,6E)-(2S,3S,8S,9S)-3-Acetylamino-9-methoxy-2,6,8-trimethyl-10-phenyl-deca-4,6-dienoyl)-pyrrolidine-2,4-dicarboxylic acid]",> 100
11,"CO[C@@H](Cc1ccccc1)[C@@H](C)/C=C(C)/C=C/[C@H](NC(C)=O)[C@H](C)C(=O)N1CCC[C@H]1C(=O)O [(S)-1-((4E,6E)-(2S,3S,8S,9S)-3-Acetylamino-9-methoxy-2,6,8-trimethyl-10-phenyl-deca-4,6-dienoyl)-pyrrolidine-2-carboxylic acid]",> 100
12,"CO[C@@H](Cc1ccccc1)[C@@H](C)/C=C(C)/C=C/[C@H](NC(C)=O)[C@H](C)C(=O)N1C[C@H](C(=O)O)C[C@@H]1C(=O)O [(2R,4R)-1-((4E,6E)-(2S,3S,8S,9S)-3-Acetylamino-9-methoxy-2,6,8-trimethyl-10-phenyl-deca-4,6-dienoyl)-pyrrolidine-2,4-dicarboxylic acid]",> 100
13,"CO[C@@H](Cc1ccccc1)[C@@H](C)/C=C(C)/C=C/[C@H](NC(C)=O)[C@H](C)C(=O)N1[C@@H](C(=O)O)CC[C@H]1C(=O)O [(2R,5S)-1-((4E,6E)-(2S,3S,8S,9S)-3-Acetylamino-9-methoxy-2,6,8-trimethyl-10-phenyl-deca-4,6-dienoyl)-pyrrolidine-2,5-dicarboxylic acid]",> 50
14,"CO[C@@H](Cc1ccccc1)[C@@H](C)/C=C(C)/C=C/[C@H](NC(C)=O)[C@H](C)C(=O)N1CCC[C@@H]1C(=O)O [(R)-1-((4E,6E)-(2S,3S,8S,9S)-3-Acetylamino-9-methoxy-2,6,8-trimethyl-10-phenyl-deca-4,6-dienoyl)-pyrrolidine-2-carboxylic acid]",> 55
15,"CO[C@@H](Cc1ccccc1)[C@@H](C)/C=C(C)/C=C/[C@H](NC(C)=O)[C@H](C)C(=O)N1C[C@H](O[Si](C(C)C)(C(C)C)C(C)C)C[C@@H]1C(=O)O [(2R,4R)-1-((4E,6E)-(2S,3S,8S,9S)-3-Acetylamino-9-methoxy-2,6,8-trimethyl-10-phenyl-deca-4,6-dienoyl)-4-triisopropylsilanyloxy-pyrrolidine-2-carboxylic acid]",> 100
16,"COC(=O)[C@H]1CCCN1C(=O)[C@@H](C)[C@H](/C=C/C(C)=C/[C@H](C)[C@H](Cc1ccccc1)OC)NC(C)=O [(R)-1-((4E,6E)-(2S,3S,8S,9S)-3-Acetylamino-9-methoxy-2,6,8-trimethyl-10-phenyl-deca-4,6-dienoyl)-pyrrolidine-2-carboxylic acid methyl ester]",> 100

# Assay: Inhibitory concentration against protein phosphatase 1 (PP1) using phosphorylase-a assay
row,SMILES,IC50 [µM]
1,"CO[C@@H](Cc1ccccc1)[C@@H](C)/C=C(C)/C=C/[C@H](NC(C)=O)[C@H](C)C(=O)N[C@H](C)C(=O)O [(R)-2-((4E,6E)-(2S,3S,8S,9S)-3-Acetylamino-9-methoxy-2,6,8-trimethyl-10-phenyl-deca-4,6-dienoylamino)-propionic acid]",1
2,"CO[C@@H](Cc1ccccc1)[C@@H](C)/C=C(C)/C=C/[C@H](NC(C)=O)[C@H](C)C(=O)N[C@@H](C)C(=O)O [(S)-2-((4E,6E)-(2S,3S,8S,9S)-3-Acetylamino-9-methoxy-2,6,8-trimethyl-10-phenyl-deca-4,6-dienoylamino)-propionic acid]",170
3,"CO[C@@H](Cc1ccccc1)[C@@H](C)/C=C(C)/C=C/[C@H](NC(C)=O)[C@H](C)C(=O)NCC(=O)O [((4E,6E)-(2S,3S,8S,9S)-3-Acetylamino-9-methoxy-2,6,8-trimethyl-10-phenyl-deca-4,6-dienoylamino)-acetic acid]",5.6
